The text below walks through data of patent US20090325894A1 (priority 2007, published 2009).

Like-named read-outs stand apart in the source and are kept apart here.

Data set [1] is described as follows: Solubility in water. In kind it is physicochemical.
The test system of data set [2] is LoVo cells. The data set can be described thus: Cell growth inhibition assay (MTS assay), LoVo cells. In kind it is cell-based, Human. The note with it: 48 hours, RPMI1640-SIT serum-free medium, read-out: Half maximal inhibitory concentration (IC50) LoVo cells. On the procedure: (§1) Cell Growth Inhibition Assay (MTS Assay)
(§2) 1. Cell Strain and Reagents
LoVo: Human colorectal adenocarcinoma cell line (ATCC catalog # CCL-229);
(§3) SIT solution (SIGMA), RPMI 1640 culture solution, Phosphate buffer, Dimethyl sulfoxide (DMSO), MTS solution (Promega), 96-well cell culture plate;
(§4) Anti-tumor compounds: synthesized by Tianjin Hemay Bio-tech Co., Ltd.;
(§5) Positive control drugs: doxorubicin (Zhejiang Hisun Pharmaceutical Co., Ltd).
(§6) The above-mentioned cells were cultured for several days (RPMI 1640, 10% of bovine serum), collected and suspended in RPMI1640-SIT serum-free medium, placed into a 96-well cell culture plate with each well containing about 20,000 cells/100 μL. The cells were cultured overnight at 5% CO2 and 37° C. The next day, representative antitumor compounds (between 3 and 10 mM) were dissolved in dimethyl sulphoxide (DMSO) to obtain a mother solution. Doxorubicin was used as positive control, DMSO was used as negative control.
(§7) The mother solution was diluted and added to the 96 well cell culture plate, culture for 48 hours at 5% CO2 and 37° C. Subsequently, 20 μL of MTS solution was added to each well of the 96 well cell culture plate and cultured for another 2 to 4 hours at 5% CO2 and 37° C. Absorbance was read at 490 nm wavelength, and converted into cell survival rate.
(§8) Calculation of Percent Inhibition:
(§9) %inhibition=100−[reading of absorbance(compound)/reading of absorbance(blank)]×100
(§10) For each concentration, there two measurements were taken and the average value was recorded. The half maximal inhibitory concentration (IC50) of cell growth was calculated by cell growth inhibition curve.

For data set [3], the system named is HeLa cells. The data set can be described thus: Cell growth inhibition assay (MTS assay), HeLa cells. The data set is classed as cell-based, Human. The note with it: 48 hours, RPMI1640-SIT serum-free medium, read-out: Half maximal inhibitory concentration (IC50) HeLa cells. The protocol:
as §1, §2
HeLa: Human adenocarcinoma cell line (ATCC catalog # CCL-2);
as §3, §4, §5, §6, §7, §8, §9, §10

Data set [4] relates to SW620 cells. The data set can be described thus: Cell growth inhibition assay (MTS assay), SW620 cells. The data set is classed as cell-based, Human. The note with it: RPMI1640-SIT serum-free medium, read-out: Half maximal inhibitory concentration (IC50) SW620 cells. On the procedure: as §1, §2
SW620: Human colorectal adenocarcinoma cell line;
as §3, §4, §5, §6, §7, §8, §9, §10

In the case of “Bissodium oleoyl-L-Alanyl-L-Valyl-Doxorubicin bis(2-carboxyl-3,4,5,6-tetrafluorobenzoate) [Example 119]”, the solubility in water result in data set [1] is “more than 1 mg/mL”.
Take “4-(2-oleoylaminoethylamino)-4-oxo-butanoyl-L-Alanyl-L-Valyl-Doxorubicin bissuccinate [Example 79]”: the IC50 in data set [2] worked out at 50 µM.
Turning to `COc1cccc2c1C(=O)c1c(O)c3c(c(O)c1C2=O)C[C@@](O)(C(=O)CO)C[C@@H]3O[C@H]1C[C@H](N)[C@H](O)[C@H](C)O1` [Doxorubicin, doxorubicin, reference compound], the IC50 was 0.3 µM in data set [3] (Homo sapiens, HeLa); 0.65 µM in data set [4] (Homo sapiens, SW-620, 48 hours); 2.6 µM in data set [2] (Homo sapiens, LoVo).
Take “Oleoyl-L-Alanyl-L-Valyl-Daunorubicin bissuccinate [Example 76]”: the IC50 in data set [2] is 10 µM.
As for “Linoleic acyl-L-Alanyl-L-Valyl-Doxorubicin bissuccinate [Example 80]”, the IC50 in data set [3] is greater than 100 µM; in data set [2], 20 µM.
For the compound “Trisodium 4-(2-(2-oleoylaminoethoxy)ethylamino)-4-oxo-butanoyl-L-Alanyl-L-Valyl-Doxorubicin trisuccinate [Example 121]”, the IC50 in data set [3] was determined as 5 µM; in data set [2], 10 µM.
Turning to “Oleoyl-L-Alanyl-L-Vayl-Doxorubicin maleate [Example 98]”, the IC50 in data set [2] was 30 µM.
As for “Bissodium 4-(2-(2-oleoylaminoethoxy)ethylamino)-4-oxo-butanoyl-L-Alanyl-L-Valyl-Doxorubicin bissuccinate [Example 112]”, the IC50 in data set [3] was 3 µM; in data set [4] (48 hours) it was 1.5 µM; in data set [2], 2 µM.
With “4-(2-(2-oleoylaminoethoxy)ethylamino)-4-oxo-butanoyl-L-Alanyl-L-Valyl-Doxorubicin bissuccinate [Example 77]”, the IC50 in data set [3] worked out at 75 µM; in data set [2], 12 µM.
As for “Oleoyl-L-Alanyl-L-Valyl-Doxorubicin bis(2-carboxyl-3,4,5,6-tetrafluorobenzoate) [Example 97]”, in data set [2], the IC50 was found to be 10 µM.
The same measure, in the same setting: for “Bissodium linoleic acyl-L-Alanyl-L-Valyl-Doxorubicin bissuccinate [Example 108]” the value was 15 µM; for “DHA acyl-L-Alanyl-L-Valyl-Doxorubicin bissuccinate [Example 82]”, 25 µM.
Still for that read-out and setting: for `CCCCCCCC/C=C\CCCCCCCC(=O)NCCOCCOCCOCCOCCOCCOCC(=O)N[C@@H](C)C(=O)N[C@H](C(=O)NC1CC(OC2CC(O)(C(=O)COC(=O)CCC(=O)O)Cc3c(O)c4c(c(O)c32)C(=O)c2c(OC)cccc2C4=O)OC(C)C1OC(=O)CCC(=O)O)C(C)C` (stereo partly drawn) [Example 86, 2-(2-(2-(2-(2-(2-(2-oleoylamino-ethoxy)ethoxy)ethoxy)ethoxy)ethoxy)ethoxy)actyl-L-Alanyl-L-Valyl-Doxorubicin bissuccinate] the value was 2.5 µM.
The same measure, in the same setting: with “Oleoyl-Glycyl-L-Alanyl-L-Valyl-Doxorubicin bissuccinate [Example 74]” the figure was 8 µM.
As for “Oleoyl-L-Alanyl-L-Valyl-Doxorubicin bissuccinate [Example 70]”, the IC50 is greater than 100 µM in data set [3] and 20 µM in data set [2].
As for “(4-(2-(2-oleoylaminoethoxy)ethylamino)-4-oxo-butanoyl)-L-Alanyl-L-Valyl-Doxorubicin [Example 54]”, in data set [2], the IC50 is 25 µM.
Still for that read-out and setting: for “2-(2-(2-(2-(2-(2-(2-oleoylaminoethoxy)ethoxy)ethoxy)ethoxy)ethoxy)ethoxy)acetyl-L-Alanyl-L-Valyl-Doxorubicin [Example 68]” the value was 30 µM; for “(4-(2-oleoylaminoethylamino)-4-oxo-butanoyl)-L-Alanyl-L-Valyl-Doxorubicin [Example 57]”, greater than 100 µM.
Turning to `COc1cccc2c1C(=O)c1c(O)c3c(c(O)c1C2=O)CC(O)(C(=O)CO)CC3OC1CC(NC(=O)[C@@H](NC(=O)[C@H](C)NC(=O)CCC(=O)NCCNC(=O)CCC(=O)NCCNC(=O)OC(C)(C)C)C(C)C)C(O)C(C)O1` (stereo partly drawn) [Example 58, 4-(2-(4-(2-tert-butoxycarbonyl-aminoethylamino)-4-oxo-butanoylamino)ethylamino)-4-oxo-butanoyl-L-Alanyl-L-Valyl-Doxorubicin], the IC50 in data set [2] came out at 75 µM.
In the case of “(4-(2-(2-oleoylaminoethoxy)ethoxy)-4-oxo-butanoyl)-L-Alanyl-L-Valyl-Doxorubicin [Example 69]”, the IC50 in data set [3] is greater than 100 µM; in data set [4] (48 hours), 12 µM; in data set [2] it was 25 µM.
In the case of “Linolenic acyl-L-Alanyl-L-Valyl-Doxorubicin bissuccinate [Example 81]”, the IC50 in data set [2] was 18 µM.
Still for that read-out and setting: with “Oleoyl-L-Alanyl-L-Valyl-Epirubicin bissuccinate [Example 75]” the figure was 0.8 µM; with “Bissodium linolenic acyl-L-Alanyl-L-Valyl-Doxorubicin bissuccinate [Example 109]”, 12 µM; with `CCCCCCCCC=CCCCCCCCC(=O)NCCNC(=O)CCC(=O)NCCNC(=O)CCC(=O)NC(C)C(=O)NC(C(=O)NC1CC(OC2CC(O)(C(=O)CO)Cc3c(O)c4c(c(O)c32)C(=O)c2c(OC)cccc2C4=O)OC(C)C1O)C(C)C` [Example 59, 4-(2-(4-(2-oleoylaminoethylamino)-4-oxo-butanoylamino)ethylamino)-4-oxo-butanoyl-L-Alanyl-L-Valyl-Doxorubicin], greater than 100 µM.
